Data from patent US12622912B2, “Application of pyrido[1,2-a]pyrimidinone analog” (GUANGZHOU JOYO PHARMATECH CO., LTD, priority 2021, dated 2026).
Like-named read-outs stand apart in the source and are kept apart here. Values belong to the molecule of their own block, whether it stands above or below them.

What was measured:
[1] = tested on: ME-180 PIK3CA-mutated cervical cancer cell line; experiment: CTG cell proliferation, ME-180; type: cell-based; conditions: ME-180, CTG, 72 hours, read-out: Absolute IC50
Text: (§1) (2) Reagents • 1) FBS (fetal bovine serum) (purchased from ExCell, product number: FND500); • 2) RPMI1640 medium (purchased from Hyclone, product number: SH30809.01); • 3) McCoy's 5A medium (purchased from Gibco, product number: 12330-031); • 4) MEM medium (purchased from Hyclone, product number: SH30024.01; • 5) MEM NEAA (purchased from Gibco, product number: 11140-050); • 6) Sodium pyruvate (purchased from Gibco). (3) Test Article and Positive Control Article • Test article: compound I; Positive Control Article: • 1) Alpelisib, molecular weight: 441.47; solvent: DMSO; storage condition after dissolution: −20° C.; supplier: Shanghai TOPSCIENCE Biochemical Technology Co., Ltd., CAS number: 1217486-61-7; • 2) Cisplatin, molecular weight: 300.05; solvent: PBS (phosphate buffer saline); storage condition: 2-8° C.; supplier: Qilu Pharmaceutical. (4) The CTG Method was Used to Determine the Cell Proliferation IC50 of the Compound
(§2) Step 1: Cells in exponential growth phase were harvested, and viable cells were counted with a Vi-Cell XR cytometer. The cell suspension was adjusted to an appropriate concentration with medium. 90 μL of cell suspension was added to each well of a 96-well cell culture plate, and the final cell concentration was 1500-6000 cells/well. […]
(§3) Step 3: After 72 hours of drug treatment, 50 μL (½ culture volume) CTG solution that was melted and equilibrated to room temperature was added to each well according to the CTG operation instruction. […] After 10 minutes, the fluorescence signal value was measured with an Envision2104 plate reader.
(§4) Cell survival rate was calculated using the formula: Vsample/Vvehicle control×100%. Where, Vsample was the reading of the drug treatment group, and Vvehicle control was the average value of the solvent control group. GraphPad Prism 5.0 software was used, and a S-type dosage-survival rate curve was drawn using a nonlinear regression model and IC50 value was calculated.

[2] = tested on: Ca Ski PIK3CA-mutated cervical cancer cell line; experiment: CTG cell proliferation, Ca Ski; type: cell-based; conditions: 72 hours, read-out: Absolute IC50
Text: as §1, §2, §3, §4

[3] = tested on: C-33A PIK3CA-mutated cervical cancer cell line; experiment: CTG cell proliferation, C-33A; type: cell-based; conditions: 72 hours, read-out: Absolute IC50
Text: as §1, §2, §3, §4

[4] = tested on: PIK3CA-mutated cervical cancer cells; experiment: CTG cell proliferation, cervical cancer cell lines; type: cell-based; conditions: across PIK3CA-mutated cervical cancer cell lines, 72 hours, Alpelisib: in two cell lines, read-out: half inhibitory concentration
Text: (2) Reagents • 1) FBS (fetal bovine serum) (purchased from ExCell, product number: FND500); • 2) RPMI1640 medium (purchased from Hyclone, product number: SH30809.01); • 3) McCoy's 5A medium (purchased from Gibco, product number: 12330-031); • 4) MEM medium (purchased from Hyclone, product number: SH30024.01; • 5) MEM NEAA (purchased from Gibco, product number: 11140-050); • 6) Sodium pyruvate (purchased from Gibco). […]
(§5) Step 1: Cells in exponential growth phase were harvested, and viable cells were counted with a Vi-Cell XR cytometer. […]
as §3, §4

[5] = tested on: HEC-1-A PIK3CA-mutated endometrial cancer cell line; experiment: CTG cell proliferation, HEC-1-A; type: cell-based; conditions: read-out: Absolute IC50
Experimental: (§6) (2) Reagents • 1) FBS (fetal bovine serum) (purchased from ExCell, product number: FND500); • 2) McCoy's 5A medium (purchased from Gibco, product number: 12330-031); • 3) MEM medium (purchased from Hyclone, product number: SH30024.01). (3) Test Article and Positive Control Article • Test article: compound I; • Positive control article: Alpelisib, molecular weight: 441.47; solvent: DMSO; storage condition after dissolution: −20° C.; supplier: Shanghai TOPSCIENCE Biochemical Technology Co., Ltd., CAS number: 1217486-61-7; (4) The CTG Method was Used to Determine the Cell Proliferation IC50 of the Compound
as §5, §3, §4

[6] = tested on: HEC-1-B PIK3CA-mutated endometrial cancer cell line; experiment: CTG cell proliferation, HEC-1-B; type: cell-based; conditions: read-out: Absolute IC50
Experimental: as §6
(§7) Step 1: Cells in exponential growth phase were harvested, and viable cells were counted with a Vi-Cell XR cytometer. The cell suspension was adjusted to an appropriate concentration with medium. 90 μL of cell suspension was added to each well of a 96-well cell culture plate, and the final cell concentration was 1500-6000 cells/well.
Step 2: The initial concentration of administration of compound I and the control drug Alpelisib was 3 μM, serially diluted 3-fold, a total of 9 concentration gradients and a DMSO control, the final concentration of DMSO in each well was 0.1%, placed in a 37° C., 5% CO2 incubator for 72 hours.
(§8) Step 3: After 72 hours of drug treatment, 50 μL (½ culture volume) CTG solution that was melted and equilibrated to room temperature was added to each well according to the CTG operation instruction. The solution was mixed well with a microplate shaker for 2 minutes, and placed at room temperature. After 10 minutes, the fluorescence signal value was measured with an Envision2104 plate reader.
as §4

[7] = tested on: T47D PIK3CA-mutated breast cancer cell line; experiment: CTG cell proliferation, T47D; type: cell-based; conditions: 72 hours, read-out: Absolute IC50
Text: (§9) (2) Reagents • 1) FBS (fetal bovine serum) (purchased from ExCell, product number: FND500); • 2) DMEM medium (purchased from Gibco, product number: C11995500BT); • 3) Insulin (purchased from Gibco, product number: EPX010-12003-901); • 4) RPMI1640 medium (purchased from Hyclone, product number: SH30809.01); • 5) MEM medium (purchased from Hyclone, product number: SH30024.01). (3) Test Article and Positive Control Article • Test article: compound I; • Positive control article: Cisplatin, Molecular weight: 300.05; Solvent: PBS (phosphate buffer saline); Storage condition: 2-8° C.; Supplier: Qilu Pharmaceutical. (4) The CTG Method was Used to Determine the Cell Proliferation IC50 of the Compound.
as §7
(§10) Step 2: The initial concentration of administration of compound I was 3 μM, and the initial concentration of administration of the control drug Cisplatin was 100 μM, and serially diluted 3-fold, a total of 9 concentration gradients and a DMSO control, the final concentration of DMSO in each well was 0.1%, placed in a 37° C., 5% CO2 incubator for 72 hours.
as §3, §4

[8] = tested on: BT-474 PIK3CA-mutated breast cancer cell line; experiment: CTG cell proliferation, BT-474; type: cell-based, human; conditions: BT-474, CTG, 72 hours; read-out: Absolute IC50
Text: as §9, §7, §10, §3, §4

[9] = tested on: J82 PIK3CA-mutated bladder cancer cell line; experiment: CTG cell proliferation, J82; type: cell-based; conditions: 72 hours, read-out: Absolute IC50
Text: (§11) (2) Reagents • 1) FBS (fetal bovine serum) (purchased from ExCell, product number: FND500); • 2) MEM medium (purchased from Hyclone, product number: SH30024.01; • 3) MEM NEAA (purchased from Gibco, product number: 11140-050); • 4) Sodium pyruvate (purchased from Gibco). […] (4) The CTG Method was Used to Determine the Cell Proliferation IC50 of the Compound
as §7, §8
(§12) Cell survival rate was calculated using the formula: Vsample/Vvehicle control×100%. Where, Vsample was the reading of the drug treatment group, and Vvehicle control was the average value of the solvent control group.

[10] = tested on: TCCSUP PIK3CA-mutated bladder cancer cell line; experiment: CTG cell proliferation, TCCSUP; type: cell-based; conditions: 72 hours, read-out: Absolute IC50
Text: as §11, §7, §8, §12

[11] = tested on: human breast cancer BT-474 subcutaneous xenograft tumor; experiment: In vivo efficacy, BT-474 subcutaneous xenograft tumor model; set-up: species or system BALB/c nude mice; conditions: for Tumor volume (Day 20): Mean ± SEM; for T/C / TGI: day 20
Experimental: Experimental purpose: Study the in vivo efficacy of the test drug on human breast cancer BT-474 subcutaneous xenograft tumor BALB/c nude mouse model.
(1) Cell culture: human breast cancer BT-474 cells were monolayer cultured in vitro. The culture conditions were that 10% fetal bovine serum, 100 U/ml penicillin (purchased from Gibco) and 100 μg/ml chain Mycin (purchased from Gibco) were added to Hybri-Care medium, and cultured at 37° C. and 5% CO2. Routine digestion and passage were performed with trypsin-EDTA (purchased from Gibco, product number: 25200-072) twice a week. When the cell saturation was 80%-90%, the cells are harvested, counted and inoculated.
(2) Animals: BALB/c nude mice, female, 6 weeks old, weighing 16-18 grams. Provided by Shanghai Sippe-Bk Lab Animal Co., Ltd.
(3) Control article: • Both PF05212384 and Everolimus were purchased from Shanghai TOPSCIENCE Biochemical Technology Co., Ltd.
(4) Tumor inoculation: 0.2 ml (1×10^7) BT-474 cells (matrigel was added, volume 1:1) were subcutaneously inoculated on the right back of each mouse, and the mice were divided into groups and administered with drugs when the average tumor volume reached 122 mm^3. See Table 10 below for the experimental grouping and dosing regimen.

[12] = 5 mg/kg, oral, once a day for 20 days, vs Solvent 2
[13] = 20 mg/kg, vein, once a week for 3 weeks, vs Solvent 1

IC50 ([1]; Homo sapiens): 2070 nM
IC50 ([2]; Homo sapiens): > 3 µM
IC50 ([3]; Homo sapiens): > 3 µM
IC50 [4]: > 3000 nM
IC50 ([5]; 72 hours): 2460 nM
IC50 ([5]; Homo sapiens, 72 h): > 2000 nM
IC50 ([6]; 72 hours): 2410 nM
IC50 ([6]; Homo sapiens, HEC-1B, 72 h): > 2000 nM
SMILES: Cc1nc(NC(=O)N2CCC[C@H]2C(N)=O)sc1-c1ccnc(C(C)(C)C(F)(F)F)c1 [Alpelisib]

SMILES: N.N.[Cl][Pt][Cl] [Cisplatin]
IC50 [7]: 36.6 µM
IC50 [8]: > 100 µM
IC50 [1]: 2830 nM
IC50 [2]: 16.2 µM
IC50 [3]: 3.56 µM
IC50 [9]: 1730 nM
IC50 [10]: 3.77 µM

SMILES: CO[C@H]1C[C@@H]2CC[C@@H](C)[C@@](O)(O2)C(=O)C(=O)N2CCCC[C@H]2C(=O)O[C@H]([C@H](C)C[C@@H]2CC[C@@H](OCCO)[C@H](OC)C2)CC(=O)[C@H](C)/C=C(\C)[C@@H](O)[C@@H](OC)C(=O)[C@H](C)C[C@H](C)/C=C/C=C/C=C/1C [Everolimus, reference compound]
Tumor volume (Day 20) ([11]; 5 mg/kg, oral, once a day for 20 days): 82 ± 17 mm^3
T/C [11, 12]: 19%
TGI [11, 12]: 113%

SMILES: CN(C)C1CCN(C(=O)c2ccc(NC(=O)Nc3ccc(-c4nc(N5CCOCC5)nc(N5CCOCC5)n4)cc3)cc2)CC1 [PF05212384, reference compound]
Tumor volume (Day 20) ([11]; 20 mg/kg, vein, once a week for 3 weeks): 49 ± 6 mm^3
T/C [11, 13]: 15%
TGI [11, 13]: 134%
